Experimental data published in patent US20110034510A1, “ENANTIOMER-ENRICHED ALPHA-,OMEGA-AMINO ALCOHOL DERIVATIVES, THEIR PRODUCTION AND USE AS INSECT- AND MITE-REPELLING AGENTS” (SALTIGO GMBH, priority 2006, published 2011).

Assays:
[1] = tested on: mosquitoes; experiment: Repellent test against mosquitoes on the human lower arm; type: in vivo; details: compared to the standard racemic mixture; 150 μl test product on 90 cm^2 of human lower arm; 3-minute exposure every hour for up to 8 hours
From the text: B) Repellent Effectiveness of Formulations for Use Against Mosquitoes on the Human Arm: […]
The insects, as an actively biting population (approx. 1000 mosquitoes of both genders), are kept in cages (length 90 cm, width 30 cm, height 40 cm, side walls made of gauze) which have two light fabric gates on the front side. The insects have been fed exclusively with sugared water (10% Dextropur). The age of the insects is at least 7 days; the number of insects is made up twice per week by 3-day old fully grown insects.
The low electrical illumination of the cage is active from 6 am to 6 pm, with light from 6 pm to 6 am. The temperature is 25-27° C.; the relative air humidity is 50-70%.
The lower arms of the test subjects are washed with unperfumed soap, rinsed with water, then rinsed with a solution of 70% ethanol and 30% water, and dried with a towel.
90 cm^2 of each lower arm of a test subject is rubbed uniformly with 150 μl (or 150 mg) of the test product. As soon as the formulation is dry (after approx. 5 minutes), a sleeve with an opening of 3.1-8 cm (25 cm^2) is bound around the arm such that the opening is completely over the treated surface. The corners of the opening of the sleeve have likewise been rubbed with the test material (2000) in a width of 1 cm in order to prevent bites at the corners. The area above the sleeve has been protected with a towel through which the mosquitoes cannot penetrate. Hands are protected with latex gloves.
Both arms are introduced into the cage through the fabric gate, and the number of bites (and landings, if necessary) per arm is noted within a 3-minute test period. The test is repeated every hour for up to 8 hours, or ended beforehand if the effect ceases (3 or more bites within 3 minutes or during 2 successive test sequences). Each test consists of three to 5 test subjects.

[2] = tested on: Aedes aegypti; experiment: Repellent test on a guinea pig (Aedes aegypti); type: in vivo; details: shaved guinea pig back (50 cm^2) treated with 0.4 ml of solution, 3 parts by weight active ingredient in 100 parts by volume ethanol; bites observed 10 minutes, repeated hourly, maximum 9 hours
Experimental: A) Repellent Test on a Guinea Pig
Test Animal: Aedes aegypti (Imagines)
3 parts by weight of active ingredient are taken up in 100 parts by volume of solvent
A guinea pig whose back has been shaved in an area of 50 cm^2 is accommodated in a box such that only the shaved area is accessible to the mosquitoes.
It is observed for 10 minutes how many mosquitoes bite the guinea pig. Subsequently, it is removed and the test is repeated after 1 hour. The experiment is performed for a maximum of 9 hours or until the effect ceases.

CCC(C)OC(=O)N1CCCCC1CCO (stereo in doubt) [1-[(R)-sec-butyloxycarbonyl]-2-(S)-(+)-(2-hydroxyethyl)piperidine]
Increase in the protection time* in % [1]: 12%
Protection time [2]: 3.4 h

CC[C@H](C)OC(=O)N1CCCC[C@@H]1CCO (stereo in doubt) [1-[(S)-sec-butyloxycarbonyl]-2-(R)-(+)-(2-hydroxyethyl)piperidine]
Increase in the protection time* in % [1]: 0%
Protection time [2]: 4.9 h

CC[C@H](C)OC(=O)N1CCCC[C@H]1CCO [1-[(S)-sec-butyloxycarbonyl]-2-(S)-(2-hydroxyethyl)piperidine]
Increase in the protection time* in % [1]: 0%
Protection time [2]: 3.9 h

CC[C@@H](C)OC(=O)N1CCCC[C@@H]1CCO (single isomer, unassigned)
Increase in the protection time* in % [1]: 3%
Protection time [2]: 4.4 h
